From patent US7884136B2, “Modified-release formulations of a bupropion salt” (Biovail Laboratories International S.R.L., priority 2005, dated 2011)

Experiment: Accelerated stability study of bupropion HBr, closed bottles, 40° C./75% RH, 3 and 6 months, HPLC
Format: physicochemical
Settings: 40° C./R.H. 75%; for Chromatographic purity B) (HPLC): 4) 2-N-(tert-Butyl)-aminopropiophenone / Chromatographic purity B) (HPLC): 5) single unknown impurity (each): LOQ 0.02%, LOD 0.002%; for Chromatographic purity A) (HPLC): 1) 3′-Chloropropiophenone / Chromatographic purity A) (HPLC): 3) 3′-Chlorobenzoic acid / Chromatographic purity A) (HPLC): 2) 3′-Chloro-2-bromopropiophenone: LOQ 0.05%; for Chromatographic purity A) (HPLC): 1) 3′-Chloropropiophenone / Chromatographic purity A) (HPLC): 3) 3′-Chlorobenzoic acid: LOD 0.01%; for Chromatographic purity A) (HPLC): 2) 3′-Chloro-2-bromopropiophenone: LOD 0.04%; for Assay (HPLC): on d.b.; for Description: specification white or almost white crystalline powder; for Chromatographic purity B) (HPLC): 6) total unknown impurities: sum of all impurity peak areas
Protocol: The samples were prepared in closed bottles and placed in the stability chamber. HPLC analysis was conducted on the samples prior to placing them in the stability chamber (time 0), and after 3 months and 6 months. The amounts of the main degradation products present at time 0 were compared with those amounts present after 3 months and 6 months. […] For each sample tested, at each time period, two different HPLC assays were run. The first assay labelled chromatographic purity A, measured the percentage of three impurities 3′chloropropiophenone, 3′-Chloro-2-bromopropiophenone and 3′-Chlorobenzoic acid. The second assay, labelled chromatographic purity B, measured the percentage of 2-N-(tert-Butyl)-aminopropiophenone, a single unknown impurity and the total unknown impurities.

| Structure (SMILES) | Chromatographic purity (HPLC: A + B) Total impurities (3 month) | Water content (K.F.) (3 month) | Chromatographic purity B) (HPLC): 4) 2-N-(tert-Butyl)-aminopropiophenone (3 month) | Chromatographic purity B) (HPLC): 5) single unknown impurity (each) (3 month) | Chromatographic purity A) (HPLC): 1) 3′-Chloropropiophenone (3 month) | Chromatographic purity A) (HPLC): 3) 3′-Chlorobenzoic acid (3 month) | Chromatographic purity A) (HPLC): 2) 3′-Chloro-2-bromopropiophenone (3 month) | Assay (HPLC) (3 month) | Description (3 month) | Chromatographic purity (HPLC: A + B) Total impurities (6 months) | Water content (K.F.) (6 months) | Chromatographic purity B) (HPLC): 4) 2-N-(tert-Butyl)-aminopropiophenone (6 months) | Chromatographic purity B) (HPLC): 5) single unknown impurity (each) (6 months) | Chromatographic purity A) (HPLC): 1) 3′-Chloropropiophenone (6 months) | Chromatographic purity A) (HPLC): 3) 3′-Chlorobenzoic acid (6 months) | Chromatographic purity A) (HPLC): 2) 3′-Chloro-2-bromopropiophenone (6 months) | Assay (HPLC) (6 months) | Description (6 months) | Chromatographic purity B) (HPLC): 6) total unknown impurities (6 months) | Chromatographic purity (HPLC: A + B) Total impurities (time 0) | further results |
| --- | --- | --- | --- | --- | --- | --- | --- | --- | --- | --- | --- | --- | --- | --- | --- | --- | --- | --- | --- | --- | --- |
| Br.CC(NC(C)(C)C)C(=O)c1cccc(Cl)c1 (stereo not shown) [Bupropion.HBr D00896] | 0.1% | 0.11% | 4) 0.03% | 5) 0.04% | 1) n.q. | 3) n.q. | 2) n.d. | 100.0% | conform | 0.1% | 0.04% | 4) 0.04% | 5) n.q. | 1) 0.05% | 3) n.q. | 2) n.d. | 100.4% | conform | 6) n.q. | 0.1% | Water content (K.F.) (time 0): 0.06%; Chromatographic purity B) (HPLC): 4) 2-N-(tert-Butyl)-aminopropiophenone (time 0): 4) 0.04%; Chromatographic purity B) (HPLC): 5) single unknown impurity (each) (time 0): 5) 0.05%; Chromatographic purity A) (HPLC): 1) 3′-Chloropropiophenone (time 0): 1) n.d.; Chromatographic purity A) (HPLC): 3) 3′-Chlorobenzoic acid (time 0): 3) n.q.; Chromatographic purity A) (HPLC): 2) 3′-Chloro-2-bromopropiophenone (time 0): 2) n.d.; Assay (HPLC) (time 0): 99.3%; Description (time 0): conform; Chromatographic purity B) (HPLC): 6) total unknown impurities (time 0): 6) 0.05% |
| Br.CC(NC(C)(C)C)C(=O)c1cccc(Cl)c1 (stereo not shown) [Bupropion.HBr D00895] | 0.1% | 0.07% | 4) 0.03% | 5) 0.04% | 1) n.q. | 3) 0.05% | 2) n.d. | 100.7% | conform | 0.1% | 0.07% | 4) 0.04% | 5) n.q. | 1) 0.05% | 3) n.q. | 2) n.d. | 99.7% | conform | 6) 0.02% | 0.1% | Chromatographic purity B) (HPLC): 6) total unknown impurities (3 month): 6) 0.05%; Water content (K.F.) (time 0): 0.04%; Chromatographic purity B) (HPLC): 4) 2-N-(tert-Butyl)-aminopropiophenone (time 0): 4) 0.04%; Chromatographic purity B) (HPLC): 5) single unknown impurity (each) (time 0): 5) 0.04%; Chromatographic purity A) (HPLC): 1) 3′-Chloropropiophenone (time 0): 1) n.d.; Chromatographic purity A) (HPLC): 3) 3′-Chlorobenzoic acid (time 0): 3) n.q.; Chromatographic purity A) (HPLC): 2) 3′-Chloro-2-bromopropiophenone (time 0): 2) n.d.; Assay (HPLC) (time 0): 99.2%; Description (time 0): conform |
